From the supplement of paper PMC10307832

What was measured:
Assay in all cases: relative viability (nuclei count vs DMSO), 5 days (fraction); higher = more cells survive
[1] = compound: CNC(=O)c1cc(Oc2ccc(NC(=O)Nc3ccc(Cl)c(C(F)(F)F)c3)cc2)ccn1 [Sorafenib] + C[C@@H](Oc1cc(-c2cnn(C3CCNCC3)c2)cnc1N)c1c(Cl)ccc(F)c1Cl [Crizotinib] (partner 1 µM)
Summary of the method: (§1)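 A single step with final 0.05% Triton X-100, 1% formaldehyde and 1 ug/ml Hoechst fixed the cells and stained nuclei 5 days after treatment. Lung cancer cell lines in 1536-well plates had been treated by pin tool the day after seeding with one drug alone or a fixed anchor-drug dose plus five library-drug doses (not always all listed) in √10 steps, and nuclei were counted on 4× images. Relative viability is the ratio of nuclei in treated wells to nuclei in vehicle wells, taken as the median of duplicate plates.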

[2] = compound: CNC(=O)c1cc(Oc2ccc(NC(=O)Nc3ccc(Cl)c(C(F)(F)F)c3)cc2)ccn1 [Sorafenib] + NC(=O)Nc1cc(-c2cccc(F)c2)sc1C(=O)N[C@H]1CCCNC1 [AZD7762] (partner 0.2 µM)
Summary of the method: as §1

[3] = compound: CNC(=O)c1cc(Oc2ccc(NC(=O)Nc3ccc(Cl)c(C(F)(F)F)c3)cc2)ccn1 [Sorafenib] + CC(=O)c1c(C)c2cnc(Nc3ccc(N4CCNCC4)cn3)nc2n(C2CCCC2)c1=O [Palbociclib] (partner 0.5 µM)
Summary of the method: as §1

[4] = compound: CNC(=O)c1cc(Oc2ccc(NC(=O)Nc3ccc(Cl)c(C(F)(F)F)c3)cc2)ccn1 [Sorafenib] + Nc1nc2[nH]cc(CCc3ccc(C(=O)N[C@@H](CCC(=O)O)C(=O)O)cc3)c2c(=O)[nH]1 [Pemetrexed] (partner 0.2 µM)
Summary of the method: as §1

[5] = compound: CNC(=O)c1cc(Oc2ccc(NC(=O)Nc3ccc(Cl)c(C(F)(F)F)c3)cc2)ccn1 [Sorafenib] + C[C@]1(O)C[C@@H](c2nc(-c3ccc4ccc(-c5ccccc5)nc4c3)c3c(N)nccn32)C1 [Linsitinib] (partner 1 µM)
Summary of the method: as §1

Row | Cell Line | relative viability ([1]; first compound 0.08 µM) | relative viability ([1]; first compound 0.253 µM) | relative viability ([1]; first compound 2.53 µM) | relative viability ([1]; first compound 8 µM) | relative viability ([2]; first compound 0.08 µM) | relative viability ([2]; first compound 0.253 µM) | relative viability ([2]; first compound 2.53 µM) | relative viability ([3]; first compound 0.08 µM) | relative viability ([3]; first compound 0.253 µM) | relative viability ([3]; first compound 2.53 µM) | relative viability ([3]; first compound 8 µM) | relative viability ([4]; first compound 0.08 µM) | relative viability ([4]; first compound 0.253 µM) | relative viability ([4]; first compound 2.53 µM) | relative viability ([4]; first compound 8 µM) | relative viability ([5]; first compound 0.08 µM) | relative viability ([5]; first compound 0.253 µM) | relative viability ([5]; first compound 2.53 µM) | relative viability ([5]; first compound 8 µM) | relative viability ([2]; first compound 8 µM)
1 | 201T | 1.03 | 1.01 | 1.13 | 1.08 | 0.575 | 0.554 | 0.449 | 0.34 | 0.343 | 0.36 | 0.357 | 0.334 | 0.302 | 0.334 | 0.328 | 1 | 0.985 | 1.02 | 1.06 | 
2 | A-427 | 0.895 | 0.855 | 0.826 | 0.369 | 0.831 | 0.675 | 0.715 | 0.531 | 0.553 | 0.589 | 0.474 | 0.926 | 0.919 | 1.05 | 0.954 | 1.07 | 1.06 | 1.03 | 0.987 | 0.541
3 | ABC-1 | 1.4 | 1.07 |  | 1.04 | 1.09 | 0.714 | 0.876 | 0.712 | 0.682 | 0.854 | 0.725 |  |  |  |  | 0.837 | 0.893 | 0.918 | 0.956 | 0.68
4 | BEN | 1 | 0.844 | 0.862 | 0.68 |  | 0.493 | 0.741 | 0.48 | 0.513 | 0.413 | 0.516 | 0.839 | 0.657 |  | 0.674 | 1.02 | 0.914 | 0.886 | 0.693 | 0.611
5 | CAL-12T | 0.751 | 0.581 | 0.524 | 0.381 | 0.642 | 0.528 | 0.616 | 0.512 | 0.396 | 0.489 | 0.247 | 1.22 | 1.1 | 1.01 | 1.13 | 0.889 |  | 0.834 | 0.656 | 0.432
6 | COR-L23 | 0.902 | 0.609 | 0.657 | 0.551 |  |  |  | 0.301 | 0.288 | 0.319 | 0.264 | 0.2 | 0.199 | 0.19 | 0.212 | 1.05 | 0.814 | 0.866 | 0.531 | 
7 | COR-L 105 | 0.874 | 0.73 | 0.839 | 0.855 |  |  |  | 0.452 | 0.365 | 0.411 | 0.384 | 1.26 | 1.31 | 1.32 | 0.852 | 0.853 | 0.926 | 0.906 | 0.985 | 
8 | ChaGo-K-1 | 1.22 | 1.09 | 1.07 |  | 0.899 | 0.796 | 0.845 | 0.908 | 0.894 |  | 0.679 | 0.247 | 0.258 | 0.264 | 0.248 |  |  |  |  | 0.809
9 | EKVX | 0.96 | 0.846 | 0.917 | 0.877 | 0.837 | 0.638 | 0.627 | 0.425 | 0.43 | 0.432 | 0.321 | 0.511 | 0.365 | 0.375 | 0.389 | 1.12 | 0.983 | 0.989 | 0.912 | 0.57
10 | EMC-BAC-2 | 0.648 | 0.728 | 0.762 | 0.809 | 1.12 | 0.982 | 1.15 | 0.519 | 0.439 | 0.467 | 0.477 | 0.438 | 0.389 | 0.41 | 0.516 | 0.821 | 0.788 | 0.838 | 0.771 | 1.06
11 | EPLC-272H |  | 0.819 |  | 0.855 | 0.247 | 0.176 |  | 0.332 | 0.338 | 0.486 | 0.295 | 0.412 | 0.295 | 0.318 | 0.542 | 1.31 | 1.09 | 1.11 |  | 0.209
12 | H3255 | 1.06 | 0.809 | 0.799 | 0.62 | 1.02 | 0.799 | 0.937 | 0.33 | 0.3 | 0.306 | 0.287 | 0.636 | 0.554 | 0.587 | 0.47 |  | 0.71 | 0.903 | 0.611 | 0.716
13 | HARA | 1.15 | 1.02 | 1.03 | 0.931 | 0.317 | 0.554 | 0.217 | 0.295 | 0.286 | 0.303 | 0.339 | 0.246 | 0.237 | 0.257 | 0.233 | 1.13 | 0.859 | 0.94 | 0.927 | 0.315
14 | HCC-15 | 0.836 | 0.774 | 0.813 | 0.566 | 1.18 | 1.17 | 1.05 | 0.77 | 0.619 | 0.708 | 0.48 | 0.253 | 0.211 | 0.22 | 0.145 |  | 0.873 | 0.846 | 0.554 | 0.951
15 | NCI-H520 | 0.912 | 0.695 | 0.67 | 0.581 |  |  |  | 0.192 | 0.208 | 0.225 | 0.172 | 0.731 | 0.781 | 0.58 | 0.199 | 1.01 | 0.905 | 0.919 | 0.307 | 
